Reference: patent US11793849B2, “Method of Chinese herbal medicine extract used for treating multiple diseases caused by drug resistant bacteria infection” (priority 2016, dated 2023)
Like-named read-outs stand apart in the source and are kept apart here.

System: MDRPA
Test: MIC determination, microdilution broth method;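 further: broth microdilution per NCCLS recommendations, testing Pithecellobium clypearia water or ethanol extracts against multidrug-resistant Pseudomonas aeruginosa, with MIC50 and MIC90 derived statistically from individual MICs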
[1] = 20 MDRPAs, EA = 60% ethanol extract
[2] = 20 MDRPAs, EA = 95% ethanol extract
[3] = MDRPAs P1-P20, single use, EA=P. clypearia 10% ethanol extract
[4] = MDRPAs P1-P20, single use, EA=P. clypearia water extract
[5] = single use, 20 MDRPAs, section of the 10% ethanol extract
[6] = single use, 20 MDRPAs, section of the 60% ethanol extract
[7] = single use, 20 MDRPAs, section of the 95% ethanol extract

Protocol: Determination methods of a Minimal Inhibitory Concentration (MIC) and a Minimum Bactericidal Concentration (MBC) of a test product: the MIC and the MBC of the Pithecellobium clypearia Benth water or ethanol extract to the MDRAB are determined by a microdilution broth method. And it is operated by referring to the microdilution broth method recommended by National Committee for Clinical Laboratory Standards (NCCLS).
By determining the MIC and the MBC of the drug and making statistics of the data to obtain MIC50, MIC90, MBC50 and MBC90, the effect of the MDRA resistance of the drug is evaluated.
Test method: the MDRPA (serial No.: P1-P20) strains are tested and are evaluated with reference to the method in the first embodiment.

CC(C)(O/N=C(\C(=O)N[C@@H]1C(=O)N2C(C(=O)[O-])=C(C[n+]3ccccc3)CS[C@H]12)c1csc(N)n1)C(=O)O [CAZ, Ceftazidime]
8 µg/mL: MIC (Pseudomonas aeruginosa, read-out: MIC (single use), strain P9, EA=P. clypearia 10% ethanol extract) | MIC (Pseudomonas aeruginosa, read-out: MIC (single use), strain P9, EA=P. clypearia water extract)
2 to 512 µg/mL: MIC Range [1] | MIC Range [2] | MIC Range [3] | MIC Range [4]
16 µg/mL: MIC (Pseudomonas aeruginosa, read-out: MIC (single use), strain P13, EA=P. clypearia 10% ethanol extract) | MIC (Pseudomonas aeruginosa, read-out: MIC (single use), strain P13, EA=P. clypearia water extract) | MIC (Pseudomonas aeruginosa, read-out: MIC (single use), strain P14, EA=P. clypearia 10% ethanol extract) | MIC (Pseudomonas aeruginosa, read-out: MIC (single use), strain P14, EA=P. clypearia water extract)
4 µg/mL: MIC (Pseudomonas aeruginosa, read-out: MIC (single use), strain P3, EA=P. clypearia 10% ethanol extract) | MIC (Pseudomonas aeruginosa, read-out: MIC (single use), strain P3, EA=P. clypearia water extract) | MIC (Pseudomonas aeruginosa, read-out: MIC (single use), strain P10, EA=P. clypearia 10% ethanol extract) | MIC (Pseudomonas aeruginosa, read-out: MIC (single use), strain P10, EA=P. clypearia water extract) | MIC (Pseudomonas aeruginosa, read-out: MIC (single use), strain P19, EA=P. clypearia 10% ethanol extract) | MIC (Pseudomonas aeruginosa, read-out: MIC (single use), strain P19, EA=P. clypearia water extract)
512 µg/mL: MIC (Pseudomonas aeruginosa, read-out: MIC (single use), strain P6, EA=P. clypearia 10% ethanol extract) | MIC (Pseudomonas aeruginosa, read-out: MIC (single use), strain P6, EA=P. clypearia water extract)
256 µg/mL: MIC90 [1] | MIC90 [2] | MIC90 [3] | MIC90 [4] | MIC90 (Pseudomonas aeruginosa) | MIC (Pseudomonas aeruginosa, read-out: MIC (single use), strain P4, EA=P. clypearia 10% ethanol extract) | MIC (Pseudomonas aeruginosa, read-out: MIC (single use), strain P4, EA=P. clypearia water extract) | MIC (Pseudomonas aeruginosa, read-out: MIC (single use), strain P8, EA=P. clypearia 10% ethanol extract) | MIC (Pseudomonas aeruginosa, read-out: MIC (single use), strain P8, EA=P. clypearia water extract) | MIC (Pseudomonas aeruginosa, read-out: MIC (single use), strain P15, EA=P. clypearia 10% ethanol extract) | MIC (Pseudomonas aeruginosa, read-out: MIC (single use), strain P15, EA=P. clypearia water extract) | MIC (Pseudomonas aeruginosa, read-out: MIC (single use), strain P20, EA=P. clypearia 10% ethanol extract) | MIC (Pseudomonas aeruginosa, read-out: MIC (single use), strain P20, EA=P. clypearia water extract) | MIC90 [5] | MIC90 [6] | MIC90 [7]
32 µg/mL: MIC50 [1] | MIC50 [2] | MIC50 [3] | MIC50 [4] | MIC50 (Pseudomonas aeruginosa) | MIC (Pseudomonas aeruginosa, read-out: MIC (single use), strain P1, EA=P. clypearia 10% ethanol extract) | MIC (Pseudomonas aeruginosa, read-out: MIC (single use), strain P1, EA=P. clypearia water extract) | MIC (Pseudomonas aeruginosa, read-out: MIC (single use), strain P16, EA=P. clypearia 10% ethanol extract) | MIC (Pseudomonas aeruginosa, read-out: MIC (single use), strain P16, EA=P. clypearia water extract) | MIC (Pseudomonas aeruginosa, read-out: MIC (single use), strain P17, EA=P. clypearia 10% ethanol extract) | MIC (Pseudomonas aeruginosa, read-out: MIC (single use), strain P17, EA=P. clypearia water extract) | MIC50 [5] | MIC50 [6] | MIC50 [7]
2 µg/mL: MIC (Pseudomonas aeruginosa, read-out: MIC (single use), strain P11, EA=P. clypearia 10% ethanol extract) | MIC (Pseudomonas aeruginosa, read-out: MIC (single use), strain P11, EA=P. clypearia water extract)
64 µg/mL: MIC (Pseudomonas aeruginosa, read-out: MIC (single use), strain P2, EA=P. clypearia 10% ethanol extract) | MIC (Pseudomonas aeruginosa, read-out: MIC (single use), strain P2, EA=P. clypearia water extract) | MIC (Pseudomonas aeruginosa, read-out: MIC (single use), strain P5, EA=P. clypearia 10% ethanol extract) | MIC (Pseudomonas aeruginosa, read-out: MIC (single use), strain P5, EA=P. clypearia water extract) | MIC (Pseudomonas aeruginosa, read-out: MIC (single use), strain P7, EA=P. clypearia 10% ethanol extract) | MIC (Pseudomonas aeruginosa, read-out: MIC (single use), strain P7, EA=P. clypearia water extract) | MIC (Pseudomonas aeruginosa, read-out: MIC (single use), strain P12, EA=P. clypearia 10% ethanol extract) | MIC (Pseudomonas aeruginosa, read-out: MIC (single use), strain P12, EA=P. clypearia water extract) | MIC (Pseudomonas aeruginosa, read-out: MIC (single use), strain P18, EA=P. clypearia 10% ethanol extract) | MIC (Pseudomonas aeruginosa, read-out: MIC (single use), strain P18, EA=P. clypearia water extract)
